From US7645755B2, “Inhibitors of c-fms kinase” (Janssen Pharmaceutical N.V., priority 2004, dated 2010) come the findings set out here.

This experiment has as its target c-fms (Homo sapiens, UniProt P07333). The experiment is described as follows: autophosphorylation, fluorescence polarization competition immunoassay for c-fms inhibition. The experiment is classed as biochemical. The following applies: read-out: c-fins IC50. The procedure:
The assay buffer used was 100 mM 4-(2-hydroxyethyl)piperazine 1-ethanesulfonic acid (HEPES), pH 7.5, 1 mM 1,4-dithio-DL-threitol (DTT), 0.01% (v/v) Tween-20. Compounds were diluted in assay buffer containing 4% dimethylsulfoxide (DMSO) just prior to the assay. […] The kinase reaction was initiated by adding 2 μL of 5 mM ATP (Sigma) in assay buffer. The final concentrations in the assay were 10 nM c-fms, 1 mM ATP, 5 mM MgCl2, 2% DMSO. Control reactions were ran in each plate: in positive and negative control wells, assay buffer (made 4% in DMSO) was substituted for the compound; in addition, positive control wells received 1.2 μL of 50 mM ethylenediaminetetraaceticacid (EDTA).
The plates were incubated at room temperature for 45 min. At the end of the incubation, the reaction was quenched with 1.2 μL of 50 mM EDTA (EDTA was not added to the positive control wells at this point; see above). Following a 5-min incubation, each well received 10 μL of a 1:1:3 mixture of anti-phosphotyrosine antibody, 10X, PTK green tracer, 10X (vortexed), FP dilution buffer, respectively (all from PanVera, cat. # P2837). The plate was covered, incubated for 30 min at room temperature and the fluorescence polarization was read on the Analyst. […] The reported IC50 values are averages of three independent measurements.
On the technique in general: In fluorescence polarisation assays a small probe gives low polarisation when free and higher when bound to something large.

The mark [1] stands for this setting: 10 nM c-fms, 1 mM ATP, 5 mM MgCl2, 2% DMSO, 45 min at room temperature, averages of three independent measurements.

Each structure is given as a SMILES string. Counter-ions that a name gives are not always drawn. Like-named read-outs stand apart in the source and are kept apart here.

Chain of c-fms (P07333 20-972): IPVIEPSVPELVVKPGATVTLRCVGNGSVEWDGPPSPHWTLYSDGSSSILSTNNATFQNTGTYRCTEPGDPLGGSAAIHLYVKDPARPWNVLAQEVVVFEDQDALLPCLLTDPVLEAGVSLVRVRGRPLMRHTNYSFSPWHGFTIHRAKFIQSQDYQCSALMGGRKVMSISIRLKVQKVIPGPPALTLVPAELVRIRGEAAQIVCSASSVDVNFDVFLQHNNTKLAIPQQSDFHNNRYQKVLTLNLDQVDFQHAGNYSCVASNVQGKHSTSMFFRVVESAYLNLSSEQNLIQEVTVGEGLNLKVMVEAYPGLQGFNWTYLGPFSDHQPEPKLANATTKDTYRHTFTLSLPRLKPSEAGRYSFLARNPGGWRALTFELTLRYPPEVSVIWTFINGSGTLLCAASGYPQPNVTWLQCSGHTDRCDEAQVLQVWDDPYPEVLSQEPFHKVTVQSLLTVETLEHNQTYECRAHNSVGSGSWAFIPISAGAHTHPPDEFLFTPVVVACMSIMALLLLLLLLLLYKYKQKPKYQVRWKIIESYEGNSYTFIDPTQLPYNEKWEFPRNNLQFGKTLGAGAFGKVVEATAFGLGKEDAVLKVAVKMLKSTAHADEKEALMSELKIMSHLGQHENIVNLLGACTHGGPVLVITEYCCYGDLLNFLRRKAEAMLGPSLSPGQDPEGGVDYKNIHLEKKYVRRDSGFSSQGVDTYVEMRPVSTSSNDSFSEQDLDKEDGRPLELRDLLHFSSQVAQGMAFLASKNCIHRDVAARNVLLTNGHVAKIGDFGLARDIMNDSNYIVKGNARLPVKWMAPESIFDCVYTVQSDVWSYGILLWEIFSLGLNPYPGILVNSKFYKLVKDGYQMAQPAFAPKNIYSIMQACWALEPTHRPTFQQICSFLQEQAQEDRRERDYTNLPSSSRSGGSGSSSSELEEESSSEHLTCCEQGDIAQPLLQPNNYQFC

Broadly, the IC50 is the midpoint of a concentration-inhibition curve. For `Cc1cscc1-c1cc(N2CCN(C)CC2)ccc1NC(=O)c1ccc(C#N)o1` [Example 5, 5-Cyano-furan-2-carboxylic acid [4-(4-methyl-piperazin-1-yl)-2-(4-methyl-thiophen-3-yl)-phenyl]-amide], under setting [1], the IC50 amounted to 950 nM.
As for `CN(C)CC(=O)N1CCC(c2ccc(NC(=O)c3nc(C#N)c[nH]3)c(C3=CCC(C)(C)CC3)n2)CC1` [Example 55, 4-Cyano-1H-imidazole-2-carboxylic acid [1′-(2-dimethylamino-acetyl)-6-(4,4-dimethyl-cyclohex-1-enyl)-1′,2′,3′,4′,5′,6′-hexahydro-[2,4′]bipyridinyl-5-yl]-amide trifluoroacetic acid salt], the half-maximal inhibitory concentration (IC50) under setting [1] worked out at 0.7 nM.
Regarding `CON1CCC(c2ccc(NC(=O)c3ncc(C#N)[nH]3)c(C3=CCCCC3)c2)CC1` [Example 53, 5-Cyano-1H-imidazole-2-carboxylic acid [2-cyclohex-1-enyl-4-(1-methoxy-piperidin-4-yl)-phenyl]-amide trifluoroacetic acid salt], the IC50 under setting [1] came to 5.3 nM.
In the case of `CS(=O)(=O)CCN1CCC(c2ccc(NC(=O)c3nc(C#N)c[nH]3)c(C3=CCCCC3)n2)CC1` [Example 58, 5-Cyano-1H-imidazole-2-carboxylic acid [6-cyclohex-1-enyl-1′-(2-methanesulfonyl-ethyl)-1′,2′,3′,4′,5′,6′-hexahydro-[2,4′]bipyridinyl-5-yl]-amide], the IC50 under setting [1] was 7 nM.
Still for that read-out and setting: to `Cn1ccnc1CN1CCC(c2ccc(NC(=O)c3nc(C#N)c[nH]3)c(C3=CCCC3)c2)CC1` [Example 23, 4-Cyano-1H-imidazole-2-carboxylic acid {2-cyclopent-1-enyl-4-[1-(1-methyl-1H-imidazol-2-ylmethyl)-piperidin-4-yl]-phenyl}-amide trifluoroacetic acid salt] belongs 6.6 nM.
On the same count and under the same terms, as for `N#Cc1c[nH]c(C(=O)Nc2ccc(C3CCS(=O)(=O)CC3)cc2C2=CCCCC2)n1` [Example 35, 4-Cyano-1H-imidazole-2-carboxylic acid [2-cyclohex-1-enyl-4-(1,1-dioxo-hexahydro-1λ^6-thiopyran-4-yl)-phenyl]-amide], the figure is 2.9 nM; as for `N#Cc1c[nH]c(C(=O)Nc2ccc(C3CCNCC3)cc2C2=CCS(=O)(=O)CC2)n1` [Example 36, 4-Cyano-1H-imidazole-2-carboxylic acid [2-(1,1-dioxo-1,2,3,6-tetrahydro-1λ^6-thiopyran-4-yl)-4-piperidin-4-yl-phenyl]-amide trifluoroacetic acid salt], 60 nM.
In the case of `C[C@@H]1CC(c2ccc(NC(=O)c3ncc(C#N)[nH]3)c(C3=CCCCC3)c2)C[C@H](C)N1` (stereo partly drawn) [Example 51a, 5-Cyano-1H-imidazole-2-carboxylic acid [2-cyclohex-1-enyl-4-(cis-2,6-dimethyl-piperidin-4-yl)-phenyl]-amide bis trifluoroacetic acid salt], the half-maximal inhibitory concentration (IC50) under setting [1] amounted to 0.2 nM.
The same measure, in the same setting: as for `O=C(Nc1ccc(C2CCNCC2)cc1C1=CCCCC1)c1nnc[nH]1` [Example 49, 4H-[1,2,4]-triazole-3-carboxylic acid (2-cyclohex-1-enyl-4-piperidin-4-yl-phenyl)-amide bis trifluoroacetic acid salt], the figure is 60 nM.
As for `CNCC(=O)N1CCC(c2ccc(NC(=O)c3nc(C#N)c[nH]3)c(C3=CCCCC3)c2)CC1` [Example 38b, 4-Cyano-1H-imidazole-2-carboxylic acid {2-cyclohex-1-enyl-4-[1-(2-methylamino-acetyl)-piperidin-4-yl]-phenyl}-amide], the IC50 under setting [1] turned out to be 1.4 nM.
As for `CC1CC=C(c2cc(C3CCN(Cc4ccccn4)CC3)ccc2NC(=O)c2nc(C#N)c[nH]2)CC1` (stereo not shown) [Example 22, 4-Cyano-1H-imidazole-2-carboxylic acid [2-(4-methyl-cyclohex-1-enyl)-4-(1-pyridin-2-ylmethyl-piperidin-4-yl)-phenyl]-amide trifluoroacetic acid salt], the 50% inhibitory concentration (IC50) under setting [1] was 1.4 nM.
In the case of `CN1CCN(c2ccc(NC(=O)c3ccc(C#N)o3)c(C3=CCOCC3)c2)CC1` [Example 12], the IC50 under setting [1] was determined as 60 nM.
The same measure, in the same setting: to `CC(=O)N1CCC(c2ccc(NC(=O)c3nc(C#N)c[nH]3)c(C3=CCS(=O)(=O)CC3)c2)CC1` [Example 37, 4-Cyano-1H-imidazole-2-carboxylic acid [4-(1-acetyl-piperidin-4-yl)-2-(1,1-dioxo-1,2,3,6-tetrahydro-1λ^6-thiopyran-4-yl)-phenyl]-amide] belongs 60 nM; to `N#Cc1c[nH]c(C(=O)Nc2ccc(C3CCNCC3)cc2C2=CCCCC2)c1` [Example 13, 4-Cyano-1H-pyrrole-2-carboxylic acid (2-cyclohex-1-enyl-4-piperidin-4-yl-phenyl)-amide trifluoroacetic acid salt], 12 nM; to `CC(=O)N1CCC(c2ccc(NC(=O)c3cc(C#N)c[nH]3)c(C3=CCCCC3)c2)CC1` [Example 15, 4-Cyano-1H-pyrrole-2-carboxylic acid [4-(1-acetyl-piperidin-4-yl)-2-cyclohex-1-enyl-phenyl]-amide], 28 nM.
For the molecule `C[C@H]1CC(c2ccc(NC(=O)c3ncc(C#N)[nH]3)c(C3=CCCCC3)c2)C[C@H](C)N1` (stereo partly drawn) [Example 51b, 5-cyano-1H-imidazole-2-carboxylic acid [2-cyclohex-1-enyl-4-(trans-2,6-dimethyl-piperidin-4-yl)-phenyl]-amide bis trifluoroacetic acid salt], under setting [1], the IC50 is 0.4 nM.
`Cc1ccsc1-c1cc(N2CCN(C)CC2)ccc1NC(=O)c1ccc(C#N)o1` [Example 4, 5-Cyano-furan-2-carboxylic acid [4-(4-methyl-piperazin-1-yl)-2-(3-methyl-thiophen-2-yl)-phenyl]-amide]: the IC50 stood at 470 nM.
As to `CC1(C)CC=C(c2nc(C3CCN(CCS(C)(=O)=O)CC3)ccc2NC(=O)c2nc(C#N)c[nH]2)CC1` [Example 56, 4-Cyano-1H-imidazole-2-carboxylic acid [6-(4,4-dimethyl-cyclohex-1-enyl)-1′-(2-methanesulfonyl-ethyl)-1′,2′,3′,4′,5′,6′-hexhydro-[2,4′]bipyridinyl-5-yl]-amide trifluoroacetic acid salt], the IC50 under setting [1] turned out to be 1 nM.
Still for that read-out and setting: as for `CC1(C)CC=C(c2nc(C3CCNCC3)ccc2NC(=O)c2nc(C#N)c[nH]2)CC1` [Example 54, 4-Cyano-1H-imidazole-2-carboxylic acid [6-(4,4-dimethyl-cyclohex-1-enyl)-1′,2′,3′,4′,5′,6′-hexahydro-[2,4′]bipyridinyl-5-yl]-amide trifluoroacetic acid salt], the figure is 0.8 nM; as for `CN1CCN(c2ccc(NC(=O)c3ccc(C#N)o3)c(-c3ccccc3F)c2)CC1` [Example 10, 5-Cyano-furan-2-carboxylic acid [2′-fluoro-5-(4-methyl-piperazin-1-yl)-biphenyl-2-yl]-amide], 900 nM.
Consider `Cc1ccccc1-c1cc(N2CCN(C)CC2)ccc1NC(=O)c1ccc(C#N)o1` [Example 9, 5-Cyano-furan-2-carboxylic acid [2 ′-methyl-5-(4-methyl-piperazin-1-yl)-biphenyl-2-yl]-amide], for which the IC50 under setting [1] came to 630 nM.
Regarding `O=C(Nc1ccc(C2CCNCC2)cc1C1=CCCCC1)c1nnc(Cl)[nH]1` [Example 50, 5-Chloro-4H-[1,2,4]-triazole-3-carboxylic acid (2-cyclohex-1-enyl-4-piperidin-4-yl-phenyl)-amide trifluoroacetic acid salt], the IC50 under setting [1] amounted to 60 nM.
